# Measured values reported in article doi:10.1101/2025.01.06.631558v1 (biorxiv, 2025).
# Key:
# CbPrpB [1] = target: T1, CbPrpB (Coxiella burnetii, UniProt Q83DG5)
# T1 construct: gene prpB
# CbPrpB [2] = target: T1, CbPrpB; test: biochemical
# T1 sequence (Q83DG5 1-290): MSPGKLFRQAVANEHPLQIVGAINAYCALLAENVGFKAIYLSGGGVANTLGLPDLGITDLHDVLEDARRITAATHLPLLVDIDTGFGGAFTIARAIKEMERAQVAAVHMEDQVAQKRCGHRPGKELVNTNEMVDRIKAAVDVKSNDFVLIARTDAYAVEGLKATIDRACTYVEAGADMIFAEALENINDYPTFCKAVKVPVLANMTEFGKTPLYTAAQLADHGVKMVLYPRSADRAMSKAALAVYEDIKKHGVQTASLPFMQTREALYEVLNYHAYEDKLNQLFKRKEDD
SMILES,"X-ray crystal structure, soak (CbPrpB [1])",Ki (CbPrpB [2])
O=C(O)CCC(=O)O [succinate],We first determined the structure of product-bound CbPrpB,
CC(=O)C(=O)O [pyruvate],We first determined the structure of product-bound CbPrpB,
O=C(O)C[C@H](C(=O)O)[C@@H](O)C(=O)O [isocitrate],,6 ± 2 mM
